For one assay, the system named is Human whole blood IFN-γ. The assay is described as follows: Assay 10: Human Whole Blood IFN-γ Assay. Format: cell-based. As to conditions: anti-CD3 and anti-CD28 stimulation, 100% = 3 μM reference compound, read-out: INFg Whole Blood Normalized Agonist EC50. As to the method:
Assay 10: Human Whole Blood IFN-γ Assay
Human venous whole blood (22.5 μL per well), obtained from healthy donors, was pre-treated with compounds for one hour at 37° C. in a humidified 95% air/5% CO2 incubator. The blood was stimulated with 2.5 μL anti-human CD3 and anti-CD28 mAb at a final concentration of 1 μg/mL each for 24 hours at 37° C. IFN-7 in the supernatants was measured using AlphLISA kit (Cat #AL217).

A further assay has as its system Human whole blood pERK. The assay is described as follows: Assay 11: DGK Human Whole Blood pERK Assay. It counts as cell-based. The following applies: anti-CD3 stimulation, pERK positive within CD8 positive population, starting concentration 20 μM, read-out: DGK HWB pERK IC50. The method, then: Assay 11: DGK Human Whole Blood pERK Assay
Human whole blood ERK phosphorylation assay was performed with human venous whole blood obtained from healthy donors (drawn with Heparin as anti-coagulant). Serial dilutions of compounds (11 points, 3-fold) in DMSO were added to 384 well plates at 20 nL/well using an ECHO 550 acoustic dispenser (Labcyte) to achieve final starting concentration of 20 μM in assay. Heparinized human whole blood was added to the compound plate at 9 μL per well and incubated for one hour at 37° C. in a humidified 95%, air/5% CO2 incubator. After one hour of compound incubation, 1 μL of human anti-CD3 antibody (in-house) in the presence of cross-linking antibody goat anti-mouse IgG (4 μg/mL) was added to the well at 1 μg/mL final concentration for stimulation of pathway and additionally incubated for 15 minutes at 37° C. Stimulation was stopped by adding 90 μL Fix/Lyse buffer (BD 558049). Cells were washed and stained with anti-CD8 PE (BD 555635) antibodies for 60 minutes at room temperature, washed again, and permeabilized on ice using Perm III buffer (BD 558050) for 30 minutes. Cells were then stained with an Alexa Fluor® 647 anti-ERK1/2 Phospho (Thr202/Tyr204) Antibody (Bioleged 675504) for 60 minutes at 1:50 dilution. Samples were washed and resuspended in dPBS containing 1% BSA (dPBS, Gibco 14190136; BSA, Sigma-Aldrich A9205). Samples analyzed using the Intellicyt® iQue Screener PLUS. The pERK activation was quantitated by the percentage of pERK positive population within CD8 positive population.

Assay [1] has as its target T1, DGKα (Homo sapiens (Human), UniProt P23743). The experiment in a line: Assay 2: In Vitro DGK Inhibition Assays, Method B (DGKα ADPGLO). Format: biochemical. As to conditions: 150 μM ATP. As to the method:
(§1) Assay 2: In Vitro DGK Inhibition Assays—Method B
(§2) The DGKα and DGKζ reactions were performed using either extruded liposome (DGKα and DGKζ LIPGLO assays) or detergent/lipid micelle substrate (DGKα and DGKζ assays). The reactions were carried out in 50 mM MOPS pH 7.5, 100 mM NaCl, 10 mM MgCl2, 1 μM CaCl2), and 1 mM DTT (assay buffer). The reactions using a detergent/lipid micelle substrate also contained 50 mM octyl B-D-glucopyranoside. The lipid substrate concentrations were 11 mM PS and 1 mM DAG for the detergent/lipid micelle reactions. The lipid substrate concentrations were 2 mM PS, 0.25 mM DAG, and 2.75 mM PC for the extruded liposome reactions (5 mM total lipid). The reactions were carried out in 150 μM ATP. The enzyme concentrations for the DGKα and DGKζ were nM.
(§3) The compound inhibition studies were carried out as follows: 25 nL droplets of each test compound (top concentration 10 mM with 11 point, 3-fold dilution series for each compound) solubilized in DMSO were transferred to wells of a white 1536 well plate (Corning 3725). A 5 mL enzyme/lipid substrate solution at 2× final reaction concentration was prepared by combining 2.5 mL 4× enzyme solution (20 nM DGKα or DGKζ (prepared as described below) in assay buffer) and 2.5 mL of either 4× liposome or 4× detergent/lipid micelle solution (compositions described below) and incubated at room temperature for 10 minutes. Next, 1 μL 2× enzyme/lipid substrate solution was added to wells containing the test compound and reactions were initiated with the addition of 1 μL 300 uM ATP. The reactions were allowed to proceed for 2 hr, after which 2 μL Glo Reagent (Promega V9101) was added and incubated for 40 minutes. Next, 4 μL Kinase Detection Reagent was added and incubated for 30 minutes. Luminescence was recorded using an EnVision microplate reader. […] The compounds were evaluated at 11 concentrations to determine IC50.
The detergent/lipid micelle was prepared by combining 15 g phosphatidylserine (Avanti 840035P) and 1 g diacylglycerol (8008110) and dissolving into 150 mL chloroform in a 2 L round bottom flask. Chloroform was removed under high vacuum by rotary evaporation. The resulting colorless, tacky oil was resuspended in 400 mL 50 mM MOPS pH 7.5, 100 mM NaCl, 20 mM NaF, 10 mM MgCl2, 1 μM CaCl2), 1 mM DTT, and 200 mM octyl glucoside by vigorous mixing. The lipid/detergent solution was split into 5 mL aliquots and stored at −80° C.
The lipid composition was 5 mol % DAG (Avanti 8008110), 40 mol % PS (Avanti 840035P), and 55 mol % PC (Avanti 850457) at a total lipid concentration of […] for the liposome solution. The PC, DAG, and PS were dissolved in chloroform, combined, and dried in vacuo to a thin film. The lipids were hydrated to 20 mM in 50 mM MOPS pH 7.5, 100 mM NaCl, 5 mM MgCl2, and were freeze-thawed five times. The lipid suspension was extruded through a 100 nm polycarbonate filter 10-12 times. Dynamic light scattering was carried out to confirm liposome size (50-60 nm radius). The liposome preparation was stored at 4° C. for as long as four weeks.
Human MA-hDGKα-(S9-S727)-Ct-TVMV-His-pFBgate and full length human DGK-ζ-transcript variant-2-TVMV-His-pFBgate baculovirus samples were generated using the Bac-to-Bac baculovirus expression system (Invitrogen) according to the manufacturer's protocol (note: MA- in name of DGKα reagents indicates two extra amino acids added prior to Ser-9). The DNA used for expression of the DGK-α(9-727) and DGK-C have SEQ ID NOs: 5 and 3, respectively. […]
Target sequence in this assay (P23743 other isoform, or with tags, fused parts or gaps): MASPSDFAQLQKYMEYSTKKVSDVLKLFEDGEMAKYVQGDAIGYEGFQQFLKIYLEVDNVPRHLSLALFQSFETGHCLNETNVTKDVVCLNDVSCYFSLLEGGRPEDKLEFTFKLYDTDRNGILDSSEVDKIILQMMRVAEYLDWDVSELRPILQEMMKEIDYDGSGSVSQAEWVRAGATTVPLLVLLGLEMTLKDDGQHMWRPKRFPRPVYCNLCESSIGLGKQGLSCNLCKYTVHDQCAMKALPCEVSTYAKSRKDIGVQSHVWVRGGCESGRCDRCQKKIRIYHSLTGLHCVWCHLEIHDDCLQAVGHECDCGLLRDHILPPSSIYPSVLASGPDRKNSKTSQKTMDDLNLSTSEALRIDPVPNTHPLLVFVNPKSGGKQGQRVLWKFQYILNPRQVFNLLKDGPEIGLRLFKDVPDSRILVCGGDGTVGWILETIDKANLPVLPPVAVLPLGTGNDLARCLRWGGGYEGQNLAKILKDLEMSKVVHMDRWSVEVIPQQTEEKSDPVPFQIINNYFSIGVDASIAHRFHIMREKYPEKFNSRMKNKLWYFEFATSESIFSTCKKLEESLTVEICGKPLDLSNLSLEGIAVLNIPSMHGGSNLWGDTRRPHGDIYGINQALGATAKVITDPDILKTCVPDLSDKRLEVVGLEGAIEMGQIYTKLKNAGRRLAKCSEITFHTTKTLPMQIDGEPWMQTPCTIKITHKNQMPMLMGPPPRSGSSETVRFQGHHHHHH
In general terms: In ADP-Glo the light output rises with the ADP produced.

In the next assay the target is DGKζ (Homo sapiens (Human), UniProt Q13574). The assay is described as follows: Assay 1 or 2: In Vitro DGK Inhibition Assays (DGKζ LIPGLO, extruded liposome). It counts as biochemical. As to conditions: extruded liposome substrate, 150 μM ATP. As to the method: (§4) Assay 1: In Vitro DGK Inhibition Assays—Method A
Sequence of DGKζ (Q13574 other isoform, or with tags, fused parts or gaps): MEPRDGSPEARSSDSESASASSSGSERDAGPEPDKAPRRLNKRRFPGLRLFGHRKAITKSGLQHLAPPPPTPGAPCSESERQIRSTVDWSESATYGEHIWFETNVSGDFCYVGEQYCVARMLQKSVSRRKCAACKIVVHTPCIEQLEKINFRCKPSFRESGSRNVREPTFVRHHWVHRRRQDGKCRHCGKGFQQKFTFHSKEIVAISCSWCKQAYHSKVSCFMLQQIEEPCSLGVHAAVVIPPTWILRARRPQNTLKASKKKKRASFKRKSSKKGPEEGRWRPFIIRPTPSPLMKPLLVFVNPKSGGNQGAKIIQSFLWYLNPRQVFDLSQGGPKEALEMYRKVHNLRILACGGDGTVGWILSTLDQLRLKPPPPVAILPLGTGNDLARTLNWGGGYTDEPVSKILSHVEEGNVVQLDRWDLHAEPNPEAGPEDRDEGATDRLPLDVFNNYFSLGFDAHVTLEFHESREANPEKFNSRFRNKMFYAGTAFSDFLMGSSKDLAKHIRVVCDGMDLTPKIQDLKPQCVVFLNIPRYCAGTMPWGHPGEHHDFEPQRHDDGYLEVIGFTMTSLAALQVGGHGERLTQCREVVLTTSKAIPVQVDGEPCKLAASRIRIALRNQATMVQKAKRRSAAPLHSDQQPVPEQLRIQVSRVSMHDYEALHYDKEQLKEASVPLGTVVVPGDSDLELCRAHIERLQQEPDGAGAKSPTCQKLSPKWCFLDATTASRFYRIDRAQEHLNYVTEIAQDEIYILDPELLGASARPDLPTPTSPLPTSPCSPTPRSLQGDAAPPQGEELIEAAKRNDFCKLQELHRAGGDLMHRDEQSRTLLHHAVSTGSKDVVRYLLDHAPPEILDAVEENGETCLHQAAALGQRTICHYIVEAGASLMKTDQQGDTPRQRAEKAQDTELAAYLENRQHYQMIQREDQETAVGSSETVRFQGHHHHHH
as §2, with “reactions.” for “reactions (5 mM total lipid).”, “5 nM” for “nM.”
as §3, with “follows: 50” for “follows: 25”, “mL enzyme/substrate” for “mL enzyme/lipid substrate”, “2× enzyme/substrate” for “2× enzyme/lipid substrate”, “for 1” for “for 2”
(§5) The lipid composition was 5 mol % DAG (Avanti 8008110), 40 mol % PS (Avanti 840035P), and 55 mol % PC (Avanti 850457) at a total lipid concentration of 15.2 mg/mL for the 4× liposome solution. The PC, DAG, and PS were dissolved in chloroform, combined, and dried in vacuo to a thin film. The lipids were hydrated to 20 mM in 50 mM MOPS pH 7.5, 100 mM NaCl, 5 mM MgCl2, and were freeze-thawed five times. The lipid suspension was extruded through a 100 nm polycarbonate filter eleven times. […] The liposome preparation was stored at 4° C. for as long as four weeks.
(§6) Baculovirus amplification was achieved using infected Sf9 cells at 1:1500 virus/cell ratios, and grown for 65 hours at 27° C. post-transfection.
(§7) The cells were lysed using nitrogen cavitation method with a nitrogen bomb (Parr Instruments), and the lysates were clarified by centrifugation. […] The three steps column chromatography included nickel affinity resin capture (i.e. HisTrap FF crude, GE Healthcare), followed by size exclusion chromatography (i.e. HiLoad 26/600 Superdex 200 prep grade, GE Healthcare for DGK-alpha, and HiPrep 26/600 Sephacryl S 300_HR, GE Healthcare for DGK-zeta). The third step was ion exchange chromatography, and differed for the two isoforms. DGKα was polished using Q-Sepharose anion exchange chromatography (GE Healthcare). DGKζ was polished using SP Sepharose cation exchange chromatography (GE Healthcare). The proteins were delivered at concentrations of ≥2 mg/mL. The formulation buffers were identical for both proteins: 50 mM Hepes, pH 7.2, 500 mM NaCl, 10% v/v glycerol, 1 mM TCEP, and 0.5 mM EDTA.
as §1
The DGKα and DGKζ reactions were performed using either extruded liposome (DGKα and DGKζ LIPGLO assays) or detergent/lipid micelle substrate (DGKα and DGKζ assays).

In assay [2] the target is T1, DGKα. The experiment in a line: Assay 1: In Vitro DGK Inhibition Assays, Method A (DGKα LIPGLO, extruded liposome). It counts as biochemical. As to conditions: extruded liposome substrate, 150 μM ATP. The method, then: as §4
as §2, with “reactions.” for “reactions (5 mM total lipid).”, “5 nM” for “nM.”
as §3, with “follows: 50” for “follows: 25”, “mL enzyme/substrate” for “mL enzyme/lipid substrate”, “2× enzyme/substrate” for “2× enzyme/lipid substrate”, “for 1” for “for 2”
as §5, §6, §7
Target sequence in this assay (P23743 whole entry): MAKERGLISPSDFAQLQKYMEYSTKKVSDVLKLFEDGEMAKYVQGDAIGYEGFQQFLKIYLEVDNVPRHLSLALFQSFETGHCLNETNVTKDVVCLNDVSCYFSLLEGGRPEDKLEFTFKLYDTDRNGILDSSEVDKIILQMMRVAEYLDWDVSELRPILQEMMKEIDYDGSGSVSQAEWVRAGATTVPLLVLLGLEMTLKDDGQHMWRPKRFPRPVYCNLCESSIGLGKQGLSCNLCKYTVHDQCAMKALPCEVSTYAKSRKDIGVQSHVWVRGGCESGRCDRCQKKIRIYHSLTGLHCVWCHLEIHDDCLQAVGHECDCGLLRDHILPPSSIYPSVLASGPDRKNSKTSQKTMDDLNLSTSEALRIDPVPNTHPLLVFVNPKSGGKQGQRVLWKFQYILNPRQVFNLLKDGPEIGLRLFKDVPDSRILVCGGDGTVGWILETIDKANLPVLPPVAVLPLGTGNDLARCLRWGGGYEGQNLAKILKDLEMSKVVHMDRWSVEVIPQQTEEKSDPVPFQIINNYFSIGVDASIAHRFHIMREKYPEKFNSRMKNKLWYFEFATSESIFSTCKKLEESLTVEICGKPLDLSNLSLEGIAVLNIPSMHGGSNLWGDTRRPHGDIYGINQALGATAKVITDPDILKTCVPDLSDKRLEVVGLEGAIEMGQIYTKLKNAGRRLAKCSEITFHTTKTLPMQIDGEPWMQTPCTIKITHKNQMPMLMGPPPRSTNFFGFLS

The record followed here is patent US12454531B2, “Substituted piperazine derivatives useful as T cell activators” (BRISTOL-MYERS SQUIBB COMPANY, priority 2019, dated 2025).

Read-outs that look alike come from different tables or passages of the source.

Regarding `CC(C)OC(=O)C(c1ccc(F)cc1)N1C[C@H](C)N(c2cc(=O)n(C)c3ccc(C#N)nc23)C[C@H]1C` (single isomer, unassigned) [Example 2], in the assay on Human whole blood IFN-γ (24 hours), the EC50 (commonly the concentration needed to bring the measured effect to its halfway point) is 0.06 µM. Also, the IC50 – broadly, the midpoint of a concentration-inhibition curve – in the assay on Human whole blood pERK (Homo sapiens, CD8 positive) was determined as 0.08 µM.

With `CC[C@H]1CN(C(C(=O)NCCOC)c2ccc(C(F)(F)F)cc2)[C@H](CC)CN1c1nc(=O)n(C)c2ccc(C#N)nc12` (single isomer, unassigned) [Example 55], the IC50 on DGKα [1] stood at 0.01 µM.

On DGKα [1], `C#CCCC1(CCCOC(=O)C(c2ccc(OC)cc2)N2C[C@H](C)N(c3nc(=O)n(C)c4ccc(C#N)nc34)C[C@H]2C)N=N1` (single isomer, unassigned) [Example 60] came in with an IC50 of 0.18 µM.

In the case of `C[C@@H]1CN(c2cc(=O)n(C)c3ccc(C#N)nc23)[C@@H](C)CN1C(C(=O)Nc1ccn(C)n1)c1ccc(F)cc1` (stereo partly drawn) [Example 15, 2-((2R,5S)-4-(6-cyano-1-methyl-2-oxo-1,2-dihydro-1,5-naphthyridin-4-yl)-2,5-dimethylpiperazin-1-yl)-2-(4-fluorophenyl)-N-(1-methyl-1H-pyrazol-3-yl)acetamide], the EC50 in the assay with Human whole blood IFN-γ (Homo sapiens, 24 h) came out at 20 µM. The IC50 against DGKζ turned out to be 9.84 µM; at DGKα [2], 279 µM; in the assay with Human whole blood pERK, 20 µM.

Turning to `C[C@@H]1CN(c2cc(=O)n(C)c3ccc(C#N)nc23)[C@@H](C)CN1C(C(=O)Nc1ccn(C)n1)c1ccc(F)cc1` (stereo partly drawn) [Example 16, 2-((2R,5S)-4-(6-cyano-1-methyl-2-oxo-1,2-dihydro-1,5-naphthyridin-4-yl)-2,5-dimethylpiperazin-1-yl)-2-(4-fluorophenyl)-N-(1-methyl-1H-pyrazol-3-yl)acetamide], the EC50 with Human whole blood IFN-γ (24 hours) amounted to 14.4 µM. For the same molecule, the IC50 on DGKζ stood at 1.34 µM; at DGKα [2] it was 0.5 µM; in the assay with Human whole blood pERK it was 5.93 µM.

Turning to `CNC(=O)C(c1ccc(F)cc1)N1C[C@H](C)N(c2cc(=O)n(C)c3ccc(C#N)nc23)C[C@H]1C` (stereo partly drawn) [Example 26, 2-((2R,5S)-4-(6-cyano-1-methyl-2-oxo-1,2-dihydro-1,5-naphthyridin-4-yl)-2,5-dimethylpiperazin-1-yl)-2-(4-fluorophenyl)-N-methylacetamide], the half-maximal effective concentration (EC50) in the assay on Human whole blood IFN-γ (24 hours) came to 20 µM. Besides, the IC50 in the assay on Human whole blood pERK (Homo sapiens, CD8 positive) was found to be 13.1 µM.

Turning to `CC(C)N(C)C(=O)CC(c1ccc(F)cc1)N1C[C@H](C)N(c2cc(=O)n(C)c3ccc(C#N)nc23)C[C@H]1C` (stereo partly drawn) [Example 41, 3-[(2R,5S)-4-(6-cyano-1-methyl-2-oxo-1,2-dihydro-1,5-naphthyridin-4-yl)-2,5-dimethylpiperazin-1-yl]-3-(4-fluorophenyl)-N-methyl-N-(propan-2-yl)propanamide], the EC50 in the assay with Human whole blood IFN-γ (Homo sapiens, 24 h) turned out to be 1.59 µM. Also, the half-maximal inhibitory concentration (IC50) against DGKζ turned out to be 0.39 µM; on DGKα [2], 1.14 µM; in the assay on Human whole blood pERK (Homo sapiens, CD8 positive), 0.41 µM.
